Reference: PubChem BioAssay AID330 (DTP/NCI, 2004)
Several values for one entry are separate records, joined by “and”; a condition that tells them apart may be missing. Equal entries are not always repeated. Inconclusive results and toxic doses are left out. How the source made its calls: active means survival T/C of 150% or more; inactive means T/C below 125% in these data.

System: P388 leukemia ip, CD2F1 mice, survival T/C
Assay: NCI In Vivo Anticancer Drug Screen. Data for tumor model P388 Leukemia (intraperitoneal) in CD2F1 (CDF1) mice
Details: endpoint: median survival time, higher = longer survival
Method in brief: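 Mice carrying the transplanted tumor received test compound or vehicle. Survival was recorded in each group, and the value is the treated-group measurement divided by that of the vehicle-treated control group.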

[1] = dose: 50.0 mg/kg/injection, schedule: Q01DX009 (ip), vehicle: Klucel (hydroxypropylcellulose) (HPC)
[2] = dose: 50.0 mg/kg/injection, schedule: Q01DX005 (ip), vehicle: Klucel (hydroxypropylcellulose) (HPC)
[3] = dose: 100.0 mg/kg/injection, schedule: Q01DX005 (ip), vehicle: Klucel (hydroxypropylcellulose) (HPC)

Measured: T/C

CNC(=S)NNc1cccc2ccccc12
inactive: dose: 12.5 mg/kg/injection, schedule: Q01DX009 (ip), vehicle: other 97 % of control | dose: 25.0 mg/kg/injection, schedule: Q01DX009 (ip), vehicle: other 101 % of control | dose: 50.0 mg/kg/injection, schedule: Q01DX009 (ip), vehicle: other 100 % of control | dose: 100.0 mg/kg/injection, schedule: Q01DX009 (ip), vehicle: other 103 % of control and 96 % of control | dose: 200.0 mg/kg/injection, schedule: Q01DX009 (ip), vehicle: other 103 % of control and 96 % of control | dose: 400.0 mg/kg/injection, schedule: Q01DX009 (ip), vehicle: other 94 % of control

Oc1ccc(C2(c3ccc(O)cc3)C3CC4CC(C3)CC2C4)cc1
inactive: [1] 104 % of control | dose: 100.0 mg/kg/injection, schedule: Q01DX009 (ip), vehicle: Klucel (hydroxypropylcellulose) (HPC) 103 % of control | dose: 200.0 mg/kg/injection, schedule: Q01DX009 (ip), vehicle: Klucel (hydroxypropylcellulose) (HPC) 100 % of control

Brc1cc(-c2ccccc2)ccc1OCC1CO1 (stereo not given)
inactive: [2] 101 % of control | [3] 108 % of control | dose: 200.0 mg/kg/injection, schedule: Q01DX005 (ip), vehicle: Klucel (hydroxypropylcellulose) (HPC) 97 % of control

OCC1CC=CCC1CO (stereo not given)
inactive: dose: 50.0 mg/kg/injection, schedule: Q01DX009 (ip), vehicle: saline with Tween-80 96 % of control | dose: 100.0 mg/kg/injection, schedule: Q01DX009 (ip), vehicle: saline with Tween-80 101 % of control | dose: 200.0 mg/kg/injection, schedule: Q01DX009 (ip), vehicle: saline with Tween-80 100 % of control

O=C1SC(Nc2ccc(Br)cc2)/C(=N\N=C2/C(Nc3ccc(Br)cc3)SC(=O)N2Cc2ccccc2)N1Cc1ccccc1 (stereo not given)
inactive: dose: 100.0 mg/kg/injection, schedule: Q04DX002 (ip), vehicle: Klucel (hydroxypropylcellulose) (HPC) 97 % of control | dose: 200.0 mg/kg/injection, schedule: Q04DX002 (ip), vehicle: Klucel (hydroxypropylcellulose) (HPC) 91 % of control | dose: 400.0 mg/kg/injection, schedule: Q04DX002 (ip), vehicle: Klucel (hydroxypropylcellulose) (HPC) 91 % of control

COc1cc([C@@H]2c3cc4c(cc3[C@@H](OC3OC5CO[C@@H](c6cccs6)OC5C(O)C3O)[C@H]3COC(=O)[C@H]23)OCO4)cc(OC)c1O (stereo not given in full)
active: dose: 0.25 mg/kg/injection, schedule: Q01DX009 (ip), vehicle: saline 170 % of control | dose: 0.5 mg/kg/injection, schedule: Q01DX009 (ip), vehicle: saline 208 % of control | dose: 1.0 mg/kg/injection, schedule: Q01DX009 (ip), vehicle: saline 261 % of control | dose: 2.0 mg/kg/injection, schedule: Q01DX005 (ip), vehicle: saline 155 % of control | dose: 2.0 mg/kg/injection, schedule: Q01DX009 (ip), vehicle: saline 157 % of control and 449 % of control | dose: 3.24 mg/kg/injection, schedule: Q04DX003 (ip), vehicle: clinical formulation 225 % of control | dose: 3.89 mg/kg/injection, schedule: Q04DX003 (ip), vehicle: saline 166 % of control | dose: 4.0 mg/kg/injection, schedule: Q01DX005 (ip), vehicle: saline 166 % of control | dose: 5.4 mg/kg/injection, schedule: Q04DX003 (ip), vehicle: clinical formulation 239 % of control | dose: 6.0 mg/kg/injection, schedule: Q01DX005 (ip), vehicle: saline 167 % of control | dose: 6.48 mg/kg/injection, schedule: Q04DX003 (ip), vehicle: clinical formulation 170 % of control | dose: 6.48 mg/kg/injection, schedule: Q04DX003 (ip), vehicle: saline 163 % of control | dose: 7.78 mg/kg/injection, schedule: Q04DX003 (ip), vehicle: saline 175 % of control | dose: 8.0 mg/kg/injection, schedule: Q01DX005 (ip), vehicle: saline 222 % of control | dose: 9.0 mg/kg/injection, schedule: Q04DX003 (ip), vehicle: clinical formulation 371 % of control | dose: 10.8 mg/kg/injection, schedule: Q04DX003 (ip), vehicle: clinical formulation 203 % of control | dose: 10.8 mg/kg/injection, schedule: Q04DX003 (ip), vehicle: saline 211 % of control | dose: 13.0 mg/kg/injection, schedule: Q04DX002 (ip), vehicle: saline 168 % of control | dose: 13.0 mg/kg/injection, schedule: Q04DX003 (ip), vehicle: saline 194 % of control | dose: 15.0 mg/kg/injection, schedule: Q04DX003 (ip), vehicle: clinical formulation 371 % of control | dose: 16.0 mg/kg/injection, schedule: Q01DX005 (ip), vehicle: saline 206 % of control | dose: 18.0 mg/kg/injection, schedule: Q04DX003 (ip), vehicle: clinical formulation 252 % of control | dose: 18.0 mg/kg/injection, schedule: Q04DX003 (ip), vehicle: saline 211 % of control | dose: 21.6 mg/kg/injection, schedule: Q04DX002 (ip), vehicle: saline 171 % of control | dose: 21.6 mg/kg/injection, schedule: Q04DX003 (ip), vehicle: saline 203 % of control | dose: 25.0 mg/kg/injection, schedule: Q04DX003 (ip), vehicle: clinical formulation 287 % of control | dose: 30.0 mg/kg/injection, schedule: Q04DX003 (ip), vehicle: clinical formulation 211 % of control | dose: 30.0 mg/kg/injection, schedule: Q04DX003 (ip), vehicle: saline 257 % of control | dose: 36.0 mg/kg/injection, schedule: Q04DX003 (ip), vehicle: saline 296 % of control | dose: 60.0 mg/kg/injection, schedule: Q04DX002 (ip), vehicle: saline 198 % of control | dose: 60.0 mg/kg/injection, schedule: Q04DX003 (ip), vehicle: saline 296 % of control | dose: 100.0 mg/kg/injection, schedule: Q04DX002 (ip), vehicle: saline 217 % of control
inactive: dose: 0.75 mg/kg/injection, schedule: Q01DX005 (iv), vehicle: saline 100 % of control | dose: 1.5 mg/kg/injection, schedule: Q01DX005 (iv), vehicle: saline 104 % of control | dose: 3.0 mg/kg/injection, schedule: Q01DX005 (iv), vehicle: saline 99 % of control | dose: 6.0 mg/kg/injection, schedule: Q01DX005 (iv), vehicle: saline 116 % of control

CC(=O)OCCCn1nc(COC(N)=O)c2c1CC(C)CC2=O (stereo not given)
inactive: dose: 60.0 mg/kg/injection, schedule: Q01DX005 (ip), vehicle: Klucel (hydroxypropylcellulose) (HPC) 101 % of control | dose: 120.0 mg/kg/injection, schedule: Q01DX005 (ip), vehicle: Klucel (hydroxypropylcellulose) (HPC) 99 % of control | dose: 240.0 mg/kg/injection, schedule: Q01DX005 (ip), vehicle: Klucel (hydroxypropylcellulose) (HPC) 100 % of control

CCCCN(CCNc1cc(OC)cc2cccnc12)C1CCCC1
inactive: dose: 50.0 mg/kg/injection, schedule: Q01DX005 (ip), vehicle: saline 104 % of control | dose: 100.0 mg/kg/injection, schedule: Q01DX005 (ip), vehicle: saline 88 % of control

CCOc1cccc(/C=N/NC(=O)C(N)Cc2ccc(O)cc2)c1O (stereo not given)
inactive: dose: 50.0 mg/kg/injection, schedule: Q01DX005 (ip), vehicle: saline with Tween-80 99 % of control | dose: 100.0 mg/kg/injection, schedule: Q01DX005 (ip), vehicle: saline with Tween-80 99 % of control | dose: 200.0 mg/kg/injection, schedule: Q01DX005 (ip), vehicle: saline with Tween-80 99 % of control

O=c1[nH]cnc2cc([N+](=O)[O-])ccc12
inactive: dose: 12.0 mg/kg/injection, schedule: Q01DX005 (ip), vehicle: Klucel (hydroxypropylcellulose) (HPC) 101 % of control | dose: 25.0 mg/kg/injection, schedule: Q01DX005 (ip), vehicle: Klucel (hydroxypropylcellulose) (HPC) 101 % of control | [2] 101 % of control and 106 % of control | [3] 111 % of control

Cn1c(=O)c2[nH]c(-n3ccc(=N)cc3)nc2n(C)c1=O
inactive: dose: 100.0 mg/kg/injection, schedule: Q04DX003 (ip), vehicle: saline 103 % of control | dose: 200.0 mg/kg/injection, schedule: Q04DX003 (ip), vehicle: saline 99 % of control | dose: 400.0 mg/kg/injection, schedule: Q04DX003 (ip), vehicle: saline 99 % of control

COc1ccc(N2CC[N+](c3ccc(N(C)C)cc3)=C2C2=[N+](c3ccc(N(C)C)cc3)CCN2c2ccc(OC)cc2)cc1
inactive: dose: 12.5 mg/kg/injection, schedule: Q01DX009 (ip), vehicle: Klucel (hydroxypropylcellulose) (HPC) 91 % of control | dose: 25.0 mg/kg/injection, schedule: Q01DX009 (ip), vehicle: Klucel (hydroxypropylcellulose) (HPC) 91 % of control | [1] 91 % of control

Cn1cnc2cc(NCc3ccccc3)c([N+](=O)[O-])cc2c1=O
inactive: dose: 100.0 mg/kg/injection, schedule: Q04DX003 (ip), vehicle: Klucel (hydroxypropylcellulose) (HPC) 100 % of control | dose: 200.0 mg/kg/injection, schedule: Q04DX003 (ip), vehicle: Klucel (hydroxypropylcellulose) (HPC) 106 % of control | dose: 400.0 mg/kg/injection, schedule: Q04DX003 (ip), vehicle: Klucel (hydroxypropylcellulose) (HPC) 101 % of control
